What all share (assay type): in vivo
For test [1], the system named is Aspergillus flavus. The test can be described thus: Aspergillus flavus pulmonary infection model in compromised mice, oral treatment. To be noted: for %ANIMALS NEG / %SURVIVAL: 18 days post infection; for %ANIMALS NEG: negative = <10 colonies; for %SURVIVAL: compromised CF-1 mice. The source says:
The in vivo oral antifungal activity of the compounds of Example 23-26 were compared to those of itraconazole, fluconazole and saperconazole in an Aspergillus pulmonary infection model in mice. The procedure of David Loebenberg et al. entitled "Sch 42427, The Active Enantiomer of Antifungal agent Sch 39304: In Vitro and In Vivo Activity" Antimicrobial Agents and Chemotherapy (1992), 36 498-501 was used. The Aspergillus flavus pulmonary model was run in the following manner Male, CF-1 mice weighing 20 grams were compromised with cortisone acetate (100 mg/kg), administered subcutaneously, once daily for 3 days. In addition, to prevent bacterial disease, tetracycline HCL (300 mg/1) was added to the drinking water and given ad libitum. On day 2 of compromising, mice were infected in an inhalation chamber, first described by Piggot and Emmons in 1960 and modified by us. The chamber is a 1 liter pyrex, thick-walled flask with 8 tubular side-arms that extend into the flask. Each side-arm is a pyrex tube of 14 cm length, constricted to a 1 cm opening inside the flask. The bottom of the flask was covered with a malt extract agar medium on which a sporulating culture of A. flavus ATCC 24133 was grown for 13 days at room temperature. The top of the flask was closed with a #10 stopper through which passed a glass tube attached by rubber tubing to a 60 mL syringe. Mice were placed in each of the side arms and pushed to the bottoms so that their nares extended beyond the open end of the tube and over the agar. Cotton plugs were then inserted behind the mice to hold them in place. By pumping the 60 mL syringe twice, air was forced over the culture and produced a cloud of spores. Mice were exposed to the spore cloud for one minute. Within 15-30 minutes after exposure, a number of mice were sacrificed and lung tissue samples homogenized for culture to determine the number of inhaled conidia. Oral treatment began 24 h post-infection with doses of 5 to 250 mg of drug/kg in ethanol; vehicle (115 ml of Emulphor EL-719P, GAF, Wayne, NJ; and 5 ml of 20% w/v lactic acid per liter of water), 10:90 v/v, once daily for 4 days.
The procedure of Example 31 was used to compare the in vivo oral antifungal activity of (±)-5R/S-(cis)-4-[4-[4-[4-[[5-(2,4-difluorophenyl)-5-(1H-1,2,4-triazol-1-ylmethyl) tetrahydrofuran-3-yl]methoxy-phenyl-1-piperazinyl]phenyl]-2,4-dihydro-2[(R/S)-(1-methylpropyl)]-3H-1,2,4-triazol-3-one with (±)-2R/S-(cis)-1-[4-[[2-(2,4-difluorophenyl)-2-(1H-1,2,4-triazol-1-ylmethyl) tetrahydro-4-furanyl]methoxy]phenyl]-4-(1-methylethyl)piperazine of Example 68 of USP 5,039,676 in an Aspergillus pulmonary infection model described in Example 31. […]
The procedures of Examples 31 and 34 were used.

In another test the test system is C. albicans C-43. As to the kind of experiment: Candida systemic model in CF1 mice infected IV with C. albicans C-43, oral treatment. Particulars: for %SURVIVAL: day 4 post-infection; for CFUs (GM): day 4, geometric mean of the logarithms of CFU remaining in the kidneys (dead mice counted as 10^9). The method, then: The compounds of Examples 23-26 and itraconazole, fluconazole, and saperconazole were tested for in vivo oral antifungal activity in a Candida systemic model using CF1 male mice , average weight 20 g, Harlan Sprague Dawley, Inc., Indianapolis, Ind. infected by IV injection into the tail vein of C. albicans C-43 (5 million CFUs). […] Oral efficacy was measured after four (4) days by percent survival and by the number of organisms remaining in the kidneys i.e., the Colony Forming Units (CFUs). The mice were sacrificed and the kidneys of individual mice were homogenized in sterile saline, diluted and spread onto Mycosel agar. Colony counts were determined after 48 hours at 37°C. For calculation of geometric means, mice that died during the experiment were considered to have 10^9 CFUs/kidneys (based on numerous previous experiments).

Test [2] has as its system Aspergillus flavus. As to the kind of experiment: Aspergillus flavus pulmonary infection model in compromised mice, oral treatment. Particulars: for %SURVIVAL / %ANIMALS NEG / CFU-GEO MEAN OF SURVIVORS: 18 days post infection; for %SURVIVAL: compromised CF-1 mice; for %ANIMALS NEG: negative = <10 colonies; for CFU-GEO MEAN OF SURVIVORS: geometric mean of the logarithm of CFU remaining in the lung.

[3] abbreviates: 33 mg/kg PO once a day for 4 days.
The mark [4] stands for this setting: 66 mg/kg PO once a day for 4 days.
[5] abbreviates: 100 mg/kg PO once a day for 4 days.
The mark [6] stands for this setting: 10 MPK PO in PEG-200, 1 a day x 4 days.
Setting [7] is: 25 MPK PO in PEG-200, 1 a day x 4 days.
The mark [8] stands for this setting: 50 MPK PO in PEG-200, 1 a day x 4 days.
Where [9] appears, read: 33 mg/kg PO [3RX/DAY] for 4 days.
Where [10] appears, read: 1 MPK PO in PEG-200, 1 a day x 4 days.

On to `CCC(C)n1ncn(-c2ccc(N3CCN(c4ccc(OCC5COC(Cn6cncn6)(c6ccc(Cl)cc6Cl)O5)cc4)CC3)cc2)c1=O` (stereo not shown) [Itraconazole, reference compound], for which the “%ANIMALS NEG” value in the test with Aspergillus flavus [1] (setting [3]), in the test with Aspergillus flavus [1] (setting [4]), in the test with Aspergillus flavus [1] (setting [5]) and in the test on Aspergillus flavus [2] (setting [9]) was 0% each time. Also, the “%SURVIVAL” value in the test with Aspergillus flavus [1] (setting [5]) is recorded as 20%; with C. albicans C-43 (setting [6]), 0%; in the test with C. albicans C-43 (setting [7]) it was 0%; with C. albicans C-43 (setting [8]), 60%; in the test on Aspergillus flavus [2] (setting [9]), 10%; in the test on Aspergillus flavus [2] (setting [3]) it was 0%. Further, in the test on Aspergillus flavus [2] (setting [4]), the “%SURVIVAL” value was 0%. For the same compound, the entries for the “CFUs (GM)” value in the test on C. albicans C-43 (10 MPK PO in PEG-200), with C. albicans C-43 (25 MPK PO in PEG-200) and with C. albicans C-43 (50 MPK PO in PEG-200) were 9.00, 9.00 and 6.68, respectively. The “PERCENT SURVIVAL AFTER 5 DAYS (5D)” value in the test on Aspergillus flavus [2] (head prints 50 mg/kg (third dose column, c3), in PEG-200 daily for 4 days, CF-1 mice) is reported as 17.

With `CC[C@H](C)n1ncn(-c2ccc(N3CCN(c4ccc(OC[C@@H]5CO[C@@](Cn6cncn6)(c6ccc(F)cc6F)C5)cc4)CC3)cc2)c1=O` [Example 24, (-)-[(5R)-cis]-4-[4-[4-[4-[[5-(2,4-Difluorophenyl)-5-(1H-1,2,4-triazol-1-ylmethyl)tetrahydrofuran-3-yl]methoxy]phenyl]-1-piperazinyl]phenyl]-2,4-dihydro-2-[(1S)-(1-methylpropyl)]-3H-1,2,4-triazol-3-one], the “%SURVIVAL” value in the test with Aspergillus flavus [1] (setting [3]) was 0%; with Aspergillus flavus [1] (setting [4]), 50%; with Aspergillus flavus [1] (setting [5]), 100%; with C. albicans C-43 (setting [10]), 30%; in the test on C. albicans C-43 (setting [6]), 40%; in the test on C. albicans C-43 (setting [7]), 100%. Further, the “%SURVIVAL” value was found to be 100% in the test with C. albicans C-43 (setting [8]) and 40% in the test with Aspergillus flavus [2] (setting [9]). Moreover, the “%ANIMALS NEG” value with Aspergillus flavus [1] (setting [3]) worked out at 0%; in the test with Aspergillus flavus [1] (setting [4]), 0%; in the test on Aspergillus flavus [1] (setting [5]), 20%; in the test on Aspergillus flavus [2] (setting [9]) it was 0%. The “oral activity in the Aspergillus pulmonary mouse model” value in the test with Aspergillus flavus [1] (PO, result in words (active / inactive)) is “exhibit oral activity”. For the same compound, the “oral activity against Aspergillus flavus pulmonary infections compared with itraconazole, fluconazole and saperconazole” value in the test with Aspergillus flavus [1] (in vivo mouse model, PO, result in words) was “more active orally”. For the same compound, the “CFUs (GM)” value in the test on C. albicans C-43 (1 MPK PO in PEG-200) came out at 7.88; in the test on C. albicans C-43 (10 MPK PO in PEG-200), 7.42; in the test on C. albicans C-43 (25 MPK PO in PEG-200) it was 5.14; in the test on C. albicans C-43 (50 MPK PO in PEG-200), 4.99. In addition, the “oral activity in the Candida systemic model compared with itraconazole” value in the test with C. albicans C-43 (doses of 50, 25 and 10 mpk, each dissolved in PEG-200, result in words) is “more active orally”. Further, the “CFU-GEO MEAN OF SURVIVORS” value with Aspergillus flavus [2] (setting [9]) is 2.4; in the test on Aspergillus flavus [2] (setting [4]) it was 2.25; with Aspergillus flavus [2] (setting [5]) it was 1.95.

As for `CC[C@@H](C)n1ncn(-c2ccc(N3CCN(c4ccc(OC[C@@H]5CO[C@@](Cn6cncn6)(c6ccc(F)cc6F)C5)cc4)CC3)cc2)c1=O` [Example 23], the “%SURVIVAL” value turned out to be 10% with Aspergillus flavus [1] (setting [3]); 10% in the test on Aspergillus flavus [1] (setting [4]); 70% in the test with Aspergillus flavus [1] (setting [5]); 10% with C. albicans C-43 (setting [10]); 50% in the test on C. albicans C-43 (setting [6]); 80% in the test with C. albicans C-43 (setting [7]). Further, the “%SURVIVAL” value in the test on C. albicans C-43 (setting [8]) came out at 90%; in the test with Aspergillus flavus [2] (setting [9]), 60%. Besides, the “%ANIMALS NEG” value in the test on Aspergillus flavus [1] (setting [3]) came out at 0%; in the test with Aspergillus flavus [1] (setting [4]) it was 0%; in the test with Aspergillus flavus [1] (setting [5]), 10%; in the test with Aspergillus flavus [2] (setting [9]), 10%. The “CFUs (GM)” value came to 8.57 in the test on C. albicans C-43 (1 MPK PO in PEG-200), 6.78 with C. albicans C-43 (10 MPK PO in PEG-200), 5.90 in the test with C. albicans C-43 (25 MPK PO in PEG-200) and 5.62 with C. albicans C-43 (50 MPK PO in PEG-200). Further, the “CFU-GEO MEAN OF SURVIVORS” value in the test with Aspergillus flavus [2] (setting [9]) is 1.08; in the test on Aspergillus flavus [2] (setting [5]), 1.85.

The record behind these values is patent EP0610377B1, “TRI-SUBSTITUTED TETRAHYDROFURAN ANTIFUNGALS” (SCHERING CORPORATION, priority 1991, dated 1993).
